System: 889142-216-R-J1-PDC complex spheroid viability
Assay: Anticancer human tumor 889142-216-R-J1-PDC patient-derived bladder carcinoma cell line growth inhibition [POLQ]
Conditions: for IC50: curve of first compound; for viability, T/C: stronger effect = lower value
Outline: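 Patient-derived tumour cells were co-cultured with HUVEC and mesenchymal stem cells as multicellular spheroids at 37 °C. They were treated with POLQ inhibitors (novobiocin, ART-558, RP6685) alone or combined with other agents. Top concentrations were at or near clinical Cmax (otherwise 10 microM; SN-38 at 1 microM), decreasing in half-log steps.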

[1] = second compound 0.0316 µM, first compound 0.0316 µM
[2] = second compound 0.0316 µM, first compound 0.1 µM
[3] = second compound 0.0316 µM, first compound 0.316 µM
[4] = second compound 0.0316 µM, first compound 1 µM
[5] = second compound 0.0316 µM, first compound 3.16 µM
[6] = second compound 0.0316 µM, first compound 10 µM
[7] = second compound 0.1 µM, first compound 0.0316 µM
[8] = second compound 0.1 µM, first compound 0.1 µM
[9] = second compound 0.1 µM, first compound 0.316 µM
[10] = second compound 0.1 µM, first compound 1 µM
[11] = second compound 0.1 µM, first compound 3.16 µM
[12] = second compound 0.1 µM, first compound 10 µM
[13] = second compound 0.316 µM, first compound 0.0316 µM
[14] = second compound 0.316 µM, first compound 0.1 µM
[15] = second compound 0.316 µM, first compound 0.316 µM
[16] = second compound 0.316 µM, first compound 1 µM
[17] = second compound 0.316 µM, first compound 3.16 µM
[18] = second compound 0.316 µM, first compound 10 µM
[19] = second compound 1 µM, first compound 0.0316 µM
[20] = second compound 1 µM, first compound 0.1 µM
[21] = second compound 1 µM, first compound 0.316 µM
[22] = second compound 1 µM, first compound 1 µM
[23] = second compound 1 µM, first compound 3.16 µM
[24] = second compound 1 µM, first compound 10 µM
[25] = second compound 3.16 µM, first compound 0.0316 µM
[26] = second compound 3.16 µM, first compound 0.1 µM
[27] = second compound 3.16 µM, first compound 0.316 µM
[28] = second compound 3.16 µM, first compound 1 µM
[29] = second compound 3.16 µM, first compound 3.16 µM
[30] = second compound 3.16 µM, first compound 10 µM
[31] = second compound 10 µM, first compound 0.0316 µM
[32] = second compound 10 µM, first compound 0.1 µM
[33] = second compound 10 µM, first compound 0.316 µM
[34] = second compound 10 µM, first compound 1 µM
[35] = second compound 10 µM, first compound 3.16 µM
[36] = second compound 10 µM, first compound 10 µM
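Also: spheroids exposed to compounds for seven days.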
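For viability, T/C in this document: 100% = DMSO vehicle control viability.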

## C=CC(=O)N1CCN(c2nc(=O)n(-c3c(C)ccnc3C(C)C)c3nc(-c4c(O)cccc4F)c(F)cc23)C(C)C1 (stereo unspecified) + Nc1ccc(C#CCN(C(=O)Cc2ncc(C(F)(F)F)cc2C(F)(F)F)c2ccc(F)cc2)nn1
Second compound 0.0316 µM
  IC50: > 10 µM
Second compound 0.1 µM
  IC50: > 10 µM
Second compound 0.316 µM
  IC50: > 10 µM
Second compound 1 µM
  IC50: > 10 µM
Second compound 3.16 µM
  IC50: > 10 µM
Second compound 10 µM
  IC50: > 10 µM
[1]
  viability, T/C: 95.4%
[2]
  viability, T/C: 111%
[3]
  viability, T/C: 87.8%
[4]
  viability, T/C: 121%
[5]
  viability, T/C: 133%
[6]
  viability, T/C: 93.6%
[7]
  viability, T/C: 103%
[8]
  viability, T/C: 89.2%
[9]
  viability, T/C: 109%
[10]
  viability, T/C: 129%
[11]
  viability, T/C: 111%
[12]
  viability, T/C: 102%
[13]
  viability, T/C: 135%
[14]
  viability, T/C: 127%
[15]
  viability, T/C: 96.3%
[16]
  viability, T/C: 96.5%
[17]
  viability, T/C: 145%
[18]
  viability, T/C: 111%
[19]
  viability, T/C: 113%
[20]
  viability, T/C: 86%
[21]
  viability, T/C: 120%
[22]
  viability, T/C: 121%
[23]
  viability, T/C: 116%
[24]
  viability, T/C: 100%
[25]
  viability, T/C: 126%
[26]
  viability, T/C: 88.3%
[27]
  viability, T/C: 119%
[28]
  viability, T/C: 88.8%
[29]
  viability, T/C: 119%
[30]
  viability, T/C: 104%
[31]
  viability, T/C: 99.5%
[32]
  viability, T/C: 114%
[33]
  viability, T/C: 121%
[34]
  viability, T/C: 95.1%
[35]
  viability, T/C: 126%
[36]
  viability, T/C: 131%

## CC(C)n1c(=O)n(C)c2cnc3cc(F)c(-c4ccc(OCCCN5CCCCC5)nc4)cc3c21 + Nc1ccc(C#CCN(C(=O)Cc2ncc(C(F)(F)F)cc2C(F)(F)F)c2ccc(F)cc2)nn1
Second compound 0.0316 µM
  IC50: > 10 µM
Second compound 0.1 µM
  IC50: > 10 µM
Second compound 0.316 µM
  IC50: > 10 µM
Second compound 1 µM
  IC50: > 10 µM
Second compound 3.16 µM
  IC50: > 10 µM
Second compound 10 µM
  IC50: > 10 µM
[1]
  viability, T/C: 96.5%
[2]
  viability, T/C: 113%
[3]
  viability, T/C: 119%
[4]
  viability, T/C: 79.2%
[5]
  viability, T/C: 65.5%
[6]
  viability, T/C: 95.2%
[7]
  viability, T/C: 122%
[8]
  viability, T/C: 89.3%
[9]
  viability, T/C: 70.7%
[10]
  viability, T/C: 84%
[11]
  viability, T/C: 62%
[12]
  viability, T/C: 76.1%
[13]
  viability, T/C: 95.8%
[14]
  viability, T/C: 85.1%
[15]
  viability, T/C: 79.9%
[16]
  viability, T/C: 80.7%
[17]
  viability, T/C: 56.4%
[18]
  viability, T/C: 95.8%
[19]
  viability, T/C: 91.4%
[20]
  viability, T/C: 80.3%
[21]
  viability, T/C: 104%
[22]
  viability, T/C: 88.7%
[23]
  viability, T/C: 57.3%
[24]
  viability, T/C: 97.8%
[25]
  viability, T/C: 85.6%
[26]
  viability, T/C: 72.8%
[27]
  viability, T/C: 80.5%
[28]
  viability, T/C: 88%
[29]
  viability, T/C: 70.1%
[30]
  viability, T/C: 113%
[31]
  viability, T/C: 79.3%
[32]
  viability, T/C: 97.8%
[33]
  viability, T/C: 88.6%
[34]
  viability, T/C: 79.7%
[35]
  viability, T/C: 59.7%
[36]
  viability, T/C: 97.2%

## CC1COCCN1c1cc(-c2ccnn2C)c2ccnc(-c3ccn[nH]3)c2n1 (stereo unspecified) + Nc1ccc(C#CCN(C(=O)Cc2ncc(C(F)(F)F)cc2C(F)(F)F)c2ccc(F)cc2)nn1
Second compound 0.0316 µM
  IC50: 0.386 µM
Second compound 0.1 µM
  IC50: 0.349 µM
Second compound 0.316 µM
  IC50: 0.349 µM
Second compound 1 µM
  IC50: 0.133 µM
Second compound 3.16 µM
  IC50: 0.353 µM
Second compound 10 µM
  IC50: 0.557 µM
[1]
  viability, T/C: 69.5%
[2]
  viability, T/C: 60.1%
[3]
  viability, T/C: 53.7%
[4]
  viability, T/C: 41%
[5]
  viability, T/C: 32.8%
[6]
  viability, T/C: 32.7%
[7]
  viability, T/C: 71.8%
[8]
  viability, T/C: 60%
[9]
  viability, T/C: 48.6%
[10]
  viability, T/C: 44.5%
[11]
  viability, T/C: 32.2%
[12]
  viability, T/C: 24.6%
[13]
  viability, T/C: 73.3%
[14]
  viability, T/C: 54.6%
[15]
  viability, T/C: 52.7%
[16]
  viability, T/C: 42.7%
[17]
  viability, T/C: 36.6%
[18]
  viability, T/C: 25.5%
[19]
  viability, T/C: 77.7%
[20]
  viability, T/C: 45.8%
[21]
  viability, T/C: 47.8%
[22]
  viability, T/C: 39.3%
[23]
  viability, T/C: 38.2%
[24]
  viability, T/C: 27.3%
[25]
  viability, T/C: 62.9%
[26]
  viability, T/C: 57.2%
[27]
  viability, T/C: 51%
[28]
  viability, T/C: 43.2%
[29]
  viability, T/C: 38.9%
[30]
  viability, T/C: 32.3%
[31]
  viability, T/C: 72.4%
[32]
  viability, T/C: 68.2%
[33]
  viability, T/C: 56.3%
[34]
  viability, T/C: 42.3%
[35]
  viability, T/C: 38.1%
[36]
  viability, T/C: 31.7%

Reference: PubChem BioAssay AID1963831 (Molecular Pharmacology Branch, DTP, NCI, 2024)
